According to ChEMBL document CHEMBL2203009, “Synthesis of isoindole and benzoisoindole derivatives of teicoplanin pseudoaglycon with remarkable antibacterial and antiviral activities” (Bioorg Med Chem Lett, 2012):
≈ marks a conversion by molar mass, not a printed value.

Experiments:
[1] = Toxicity in HEL cells assessed as induction of cell morphology changes; type: cell-based; settings: human
Human alphaherpesvirus 1 [2] = test: Antiviral activity against thymidine kinase deficient and acyclovir-resistant HSV1 KOS infected in HEL cells assessed as inhibition of virus-induced cytopathic effect; type: functional, organism-based; settings: Human alphaherpesvirus 1, KOS
[3] = system: Vesicular stomatitis virus; test: Antiviral activity against Vesicular stomatitis virus infected in HEL cells assessed as inhibition of virus-induced cytopathic effect; type: functional, organism-based
Vaccinia virus = test: Antiviral activity against Vaccinia virus infected in HEL cells assessed as inhibition of virus-induced cytopathic effect; type: functional, organism-based; settings: Orthopoxvirus vaccinia
Human alphaherpesvirus 2 = test: Antiviral activity against HSV2 G infected in HEL cells assessed as inhibition of virus-induced cytopathic effect; type: functional, organism-based; settings: Human alphaherpesvirus 2, strain G
Human alphaherpesvirus 1 [4] = test: Antiviral activity against HSV1 KOS infected in HEL cells assessed as inhibition of virus-induced cytopathic effect; type: functional, organism-based; settings: Human alphaherpesvirus 1, KOS
[5] = Toxicity in MDCK cells assessed as induction of cell morphology changes; type: cell-based, Canis lupus familiaris; settings: dog
Influenza B virus = test: Antiviral activity against Influenza B virus (B/Hong Kong/05/1972) […] infected in MDCK cells assessed as inhibition of virus-induced cytopathic effect; type: functional, cell-based; settings: B/Hong Kong/05/1972, MDCK
H3N2 subtype = test: Antiviral activity against Influenza A virus (A/Hong Kong/7/1987(H3N2)) […] infected in MDCK cells assessed as inhibition of virus-induced cytopathic effect; type: functional, organism-based
Influenza A virus = test: Antiviral activity against Influenza A virus (A/Puerto Rico/8/1934(H1N1)) H1N1 infected in MDCK cells assessed as inhibition of virus-induced cytopathic effect; type: functional, organism-based
Enterococcus faecalis [6] = test: Antimicrobial activity against Enterococcus faecalis 15376 over-expressing vanA; type: functional
Enterococcus faecalis [7] = test: Antimicrobial activity against Enterococcus faecalis ATCC 51299 over-expressing vanB; type: functional
[8] = system: Staphylococcus epidermidis; test: Antimicrobial activity against Staphylococcus epidermidis over-expressing MecA; type: functional
Enterococcus faecalis [9] = test: Antimicrobial activity against Enterococcus faecalis ATCC 29212; type: functional
[10] = system: Staphylococcus epidermidis; test: Antimicrobial activity against Staphylococcus epidermidis ATCC 35984 biofilms; type: functional
Staphylococcus aureus [11] = test: Antimicrobial activity against methicillin-resistant Staphylococcus aureus ATCC 33591; type: functional
Bacillus subtilis = test: Antimicrobial activity against Bacillus subtilis ATCC 6633; type: functional
Staphylococcus aureus [12] = test: Antimicrobial activity against methicillin-sensitive Staphylococcus aureus ATCC 29213; type: functional

CC(=O)N[C@H]1[C@H](O[C@@H]2c3ccc(c(Cl)c3)Oc3cc4cc(c3O)Oc3ccc(cc3Cl)C[C@H]3NC(=O)[C@H](n5cc6ccccc6c5S[C@@H]5O[C@H](COC(C)=O)[C@@H](OC(C)=O)[C@H](OC(C)=O)[C@H]5OC(C)=O)c5ccc(O)c(c5)Oc5cc(O)cc(c5)[C@H](NC3=O)C(=O)N[C@H]4C(=O)N[C@H]3C(=O)N[C@@H]2C(=O)N[C@H](C(=O)O)c2cc(O)cc(O)c2-c2cc3ccc2O)O[C@H](CO)[C@@H](O)[C@@H]1O
MCC [1]: ≥ 100 µM
EC50 (Human alphaherpesvirus 1 [2]): 40 µM
EC50 [3]: 48 µM
EC50 (Vaccinia virus): 45 µM
EC50 (Human alphaherpesvirus 2): 11 µM
EC50 (Human alphaherpesvirus 1 [4]): 40 µM
MCC [5]: 20 µM
EC50 (Influenza B virus): > 100 µM
EC50 (H3N2 subtype): > 100 µM
EC50 (Influenza A virus): > 100 µM
MBC (Enterococcus faecalis [6]): 256 µg/mL (≈ 137 µM)
MIC (Enterococcus faecalis [6]): 4 µg/mL (≈ 2.15 µM)
MBC (Enterococcus faecalis [7]): 256 µg/mL (≈ 137 µM)
MIC (Enterococcus faecalis [7]): 4 µg/mL (≈ 2.15 µM)
MBC [8]: 256 µg/mL (≈ 137 µM)
MIC [8]: 2 µg/mL (≈ 1.07 µM)
MBC (Enterococcus faecalis [9]): 256 µg/mL (≈ 137 µM)
MIC (Enterococcus faecalis [9]): 1 µg/mL (≈ 0.536 µM)
MBC [10]: 8 µg/mL (≈ 4.29 µM)
MIC [10]: 2 µg/mL (≈ 1.07 µM)
MBC (Staphylococcus aureus [11]): 128 µg/mL (≈ 68.6 µM)
MIC (Staphylococcus aureus [11]): 0.0313 µg/mL (≈ 0.0168 µM)
MBC (Bacillus subtilis): 64 µg/mL (≈ 34.3 µM)
MIC (Bacillus subtilis): 0.25 µg/mL (≈ 0.134 µM)
MBC (Staphylococcus aureus [12]): 16 µg/mL (≈ 8.58 µM)
MIC (Staphylococcus aureus [12]): 0.0625 µg/mL (≈ 0.0335 µM)

CC(=O)N[C@@H]1[C@@H](O)[C@H](O)[C@@H](CO)O[C@H]1Sc1c2ccccc2cn1[C@H]1C(=O)N[C@@H]2Cc3ccc(c(Cl)c3)Oc3cc4cc(c3O)Oc3ccc(cc3Cl)[C@@H](O[C@@H]3O[C@H](CO)[C@@H](O)[C@H](O)[C@H]3NC(C)=O)[C@@H]3NC(=O)[C@H](NC(=O)[C@@H]4NC(=O)[C@@H](NC2=O)c2cc(O)cc(c2)Oc2cc1ccc2O)c1ccc(O)c(c1)-c1c(O)cc(O)cc1[C@@H](C(=O)O)NC3=O
MCC [1]: ≥ 100 µM
EC50 (Human alphaherpesvirus 1 [2]): 45 µM
EC50 [3]: 52 µM
EC50 (Vaccinia virus): 47 µM
EC50 (Human alphaherpesvirus 2): 45 µM
EC50 (Human alphaherpesvirus 1 [4]): 47 µM
MCC [5]: < 0.8 µM
EC50 (Influenza B virus): > 100 µM
EC50 (H3N2 subtype): > 100 µM
EC50 (Influenza A virus): > 100 µM
MBC (Enterococcus faecalis [6]): 256 µg/mL (≈ 147 µM)
MIC (Enterococcus faecalis [6]): 1 µg/mL (≈ 0.576 µM)
MBC (Enterococcus faecalis [7]): 256 µg/mL (≈ 147 µM)
MIC (Enterococcus faecalis [7]): 4 µg/mL (≈ 2.3 µM)
MBC [8]: 64 µg/mL (≈ 36.8 µM)
MIC [8]: 0.0075 µg/mL (≈ 0.00432 µM)
MBC (Enterococcus faecalis [9]): 256 µg/mL (≈ 147 µM)
MIC (Enterococcus faecalis [9]): 1 µg/mL (≈ 0.576 µM)
MBC [10]: 0.5 µg/mL (≈ 0.288 µM)
MIC [10]: 0.0313 µg/mL (≈ 0.018 µM)
MBC (Staphylococcus aureus [11]): 1 µg/mL (≈ 0.576 µM)
MIC (Staphylococcus aureus [11]): 1 µg/mL (≈ 0.576 µM)
MBC (Bacillus subtilis): 1 µg/mL (≈ 0.576 µM)
MIC (Bacillus subtilis): 0.125 µg/mL (≈ 0.0719 µM)
MBC (Staphylococcus aureus [12]): 1 µg/mL (≈ 0.576 µM)
MIC (Staphylococcus aureus [12]): 0.5 µg/mL (≈ 0.288 µM)
